Assay results taken from patent publication US20120270770A1, “Anti-angiogenic peptides and their uses” (priority 2010, published 2012).

Legend:
[1] = system: Feline Immunodeficiency virus FIV; test: Treatment of a lion infected with FIV; format: in vivo; settings: weekly 70 mg I.M injections
Source text: Nasty is a male lion in North Carolina Zoological Park. He was diagnosed to suffer Feline Immunodeficiency virus FIV. FIV attacks the immune system of cats, much like the human immunodeficiency virus (HIV) attacks the immune system of human beings. FIV infects many cell types in its host, including CD4+ and CD8+ T lymphocytes, B lymphocytes, and macrophages. FIV eventually leads to debilitation of the immune system in its feline hosts by the infection and exhaustion of T-helper (CD4+) cells.
Nasty was treated weekly with 70 mg I.M injections of JC15-10N. […] It can be seen that starting of peptide treatment stabilized the CD4+ cell counts.

[2] = system: ulcerative colitis / IBD and subsequent colon cancer in IL-10 deficient mice; test: Murine model of ulcerative colitis: IL-10 deficient mice; format: in vivo, mouse
Source text: An IL-10 deficient strain of mouse was used in the study to determine the ability of JC15-10N (a novel anti-inflammatory molecule) to limit their developing IBD and subsequent colon cancer.
The Wild Type and IL-10 deficient mouse strains used in this study was obtained from Jackson Laboratories and are designated as:
The following groups of animals comprised the present experiment:
Controls: • 1. Controls (129 SvEv 129^−/− untreated) • 2. Controls (129 SvEv 129^−/− Sham/Saline Only) • 3. 129 SvEv Wild-type Controls (untreated) • 4. 129 SvEv Wild-type (Sham/Saline Only)
Treatments with JC15-10N: • 1. Pre-inflammatory (129 SvEv 129^−/−-Prevention-1 injection/week) • 2. Frank inflammatory (129 SvEv 129^−/−-Treatment-1 injection/week) • 3. Pre-inflammatory (129 SvEv 129^−/−-Prevention-1* injections/week) • 4. Frank-inflammatory (129 SvEv 129^−/−-Treatment-1* injections/week) • 5. 129 SvEv Wild-type (Prevention-1 injection/week) • 6. 129 SvEv Wild-type (Treatment-1 injection/week) • 7. 129 SvEv Wild-type (Prevention-1* injections/week) • 8. 129 SvEv Wild-type (Treatment-1* injections/week) • 9 animals/group X 12 groups (including controls)=108 mice×2 repetitions=216 mice; 1 injection/week=0.5 mg/kg subQ and 1* injection/week=5.0 mg/kg subQ injection/week. • In order to encourage inflammation, prior to the start of the experiment, pathogenic murine strains of E. coli and E. faecalis bacteria were administered to the mice in the appropriate treatment groups via oral and anal gavages, designated EC/EF.
Pre-inflammatory (4 wks.) and frank-inflammatory animals (6 wks.-8 wks) were treated with JC15-10N via subcutaneous injections every week for 14 weeks. The compound was diluted in saline to obtain treatment doses of 0.5 and 5.0 mg/kg of body weight respectively and was delivered subcutaneously using tuberculin needles. As controls, some animals were injected with saline only or remained uninjected during the course of the experiment. The procedure described by Hem and coworkers (Laboratory Animals Ltd. 1998. V 32. 364-368) was used to collect 100 micro-liters of blood from the lateral saphenous vein of all test animals once per week over the 14 weeks of peptide therapy. Blood serum was analyzed for changes in the levels of pro-inflammatory and anti-inflammatory cytokines over the 14-week treatment period. At the end of the 14-week treatment period animals were euthanized using a CO2 chamber and flushing the peritoneum with PBS will collect peritoneal lavage fluid. Colons were removed and flushed separately with PBS. Cytokine levels in the peritoneal lavage fluids and colonic fluids of all animals were compared. Following colonic flushes; colons were splayed and examined for inflammatory lesions. Lesions were excised with scissors and the remainder of the colon rolled into gut rolls. […]

[3] = treated IL-10−/− mice vs control IL-10−/− receiving no treatment

FAKKFAKKFK [JC15-10N]
absolute CD4+ cell counts [1]: stabilized
absolute CD8+ cell counts [1]: prevented the decrease
weight of the lion [1]: began to rise immediately
protective effect in IL-10 deficient mice ([2]; 0.5 and 5.0 mg/kg subQ weekly, 14 weeks, preliminary data, 0.5 mg/kg somewhat better than 5.0 mg/kg): profound protective effect
colitis [2, 3]: significant reduction
presence of advanced disease [2, 3]: significant reduction
subsequent development of colon cancer [2, 3]: significant reduction
